“Also recorded” adds a separate entry of the source.

For this experiment, the system named is dual reporter MDA-MB-231 cells (MDA-MB-231 WT). The experiment is described as follows: T cell killing in 3D tumor-fibroblast spheroids (Example 17). It is filed as cell-based, human. The conditions noted are these: nivolumab 0.5 μg/mL; 3D spheroids, 3E:1T. An excerpt:
Dual reporter MDA-MB-231 cell line with PD-L1 knockout (KO) (hereinafter referred to as “dual reporter MDA-MB-231 PD-L1 KO cells” or “MDA-MB-231 KO”) was constructed by co-transducing the Tet-on snLuc-GFP construct as constructed in Example 1 and CRISPR/Cas9 constructs targeting PD-L1. 3D tumor-fibroblast spheroids were generated by co-culturing 10,000 human dermal fibroblasts and 10,000 dual reporter MDA-MB-231 cells (“MDA-MB-231 WT”) or dual reporter MDA-MB-231 PD-L1 KO cells in ultra-low attachment plates for 3 days. After spheroid formation, 30,000 unstimulated primary T cells (3E:1T) were added in the presence of increasing concentrations of trispecific anti-HER2/anti-CD47/anti-CD3 antibody (serially diluted 5-fold, 1000 ng/mL-0.032 ng/mL), and without or with anti-PD-1 antibody nivolumab (0.5 μg/mL).
The trispecific anti-HER2/anti-CD47/anti-CD3 antibody (made in house) has no Fc function due to LALA mutations and cannot mediate ADCC. The cell-killing reaction was incubated for 48 hours. […] Cell culture media was taken one day post-induction with doxycycline (t=72 hr), and luminescence was measured on a GloMax Discover Microplate Reader. Percent cell survival was defined as luminescence readout at various antibody concentrations relative to the average readout with no antibody. […]

On to nivolumab, for which the “effect of nivolumab on trispecific antibody-mediated T cell killing” value is reported as “rescued T cell killing on dual reporter MDA-MB-231 cells; also recorded: could rescue the immunosuppression on cytotoxic T cells”.

Source of the values: patent US20220291203A1, “METHODS OF MEASURING CELL-MEDIATED KILLING BY EFFECTORS” (IMMUNOWAKE INC., priority 2019, published 2022).
